{
  "source": "patent US20230257480A1",
  "about": "“ENHANCING BLOOD-BRAIN BARRIER DRUG TRANSPORT BY TARGETING ENDOGENOUS REGULATORS” (THE BOARD OF TRUSTEES OF THE LELAND STANFORD JUNIOR …, priority 2019, published 2023)",
  "tested_on": "brain parenchymal cells",
  "test": "Flow cytometry of brain parenchymal (CD31-/CD45-) cell uptake of tracer after ALPL inhibitor treatment",
  "type": "in vivo, mice",
  "settings": "vs vehicle",
  "description": "FIG. 12A is a dot plot representation of cell-surface, druggable gene candidates on brain endothelial cells. Genes were plotted by their degree of blood-brain barrier specificity (Daneman et al., PLoS One (2010). doi:10.1371/journal.pone.0013741) and correlation with plasma uptake. Genes were colored by their upregulation (brown) or downregulation (green) with age. FIG. 12B includes representative images of calcified nodules (Alizarin red staining) detected in aged (23 m.o.—bottom panel) but not young (3 m.o.—top panel) mice, recapitulating nodules seen in pericyte-deficient Pdgfbret/ret mice (Keller et al., Nat. Genet. (2013). doi:10.1038/ng.2723) (representative image of n=5 mice per age). FIG. 12C includes representative images of Type I Collagen expression (green) in Lectin^+ vasculature (red) in the cerebral cortex of young (3 m.o.—left panels) and aged (23 m.o.—right panels) mice. Scale bar=40 microns. FIG. 12D includes representative images of ALPL expression (yellow) in AQP4^+ vasculature (purple) in the cerebral cortex of young (3 m.o.—left panels) and aged (23 m.o.—right panels) mice. Scale bar=40 microns. FIG. 12E is a graph illustrating quantification of ALPL expression in the cerebral cortex vasculature of young (3 m.o.) and aged (23 m.o.) mice (n=7, two-sided t-test; mean+/−s.e.m.). FIG. 12F is a schematic diagram illustrating cerebrovascular ALPL inhibition. Aged (22 m.o.) mice were injected intraperitoneally with vehicle or ALPL inhibitor twice a day for three days before intravenous injection of plasma, human holotransferrin, or transferrin receptor antibody. Uptake in the brain endothelium and parenchyma was assessed by flow cytometry and confocal microscopy of the cortex and hippocampus. FIG. 12G includes representative images of ectopic ALPL activity (red) in the cerebral cortex vasculature of aged (22 m.o.) mice treated with ALPL inhibitor (anti-ALPL) or vehicle and in young (3 m.o.) mice. FIG. 12H is a graph illustrating quantification of ALPL activity in the cerebral cortex vasculature of aged (22 m.o.) mice treated with ALPL inhibitor (anti-ALPL) or vehicle and in young (3 m.o.) mice (n=6-9, one-way ANOVA with Tukey's multiple comparisons correction; mean+/−s.e.m.). FIGS. 12I-12L include graphs illustrating flow cytometry quantification of brain parenchymal (CD31−/CD45−) cell uptake of plasma in aged (22 m.o.) mice (FIG. 12I); plasma in young (3 m.o.) mice (FIG. 12J); human holo-transferrin (hu-Tf) in aged (22 m.o.) mice (FIG. 12K); or transferrin receptor antibody (TfR Ab) in aged (22 m.o.) mice (FIG. 12L) after ALPL inhibitor (anti-ALPL) and vehicle treatment, as assessed by the percent (%) of parenchymal cells that are tracer^+ and the relative mean fluorescence intensity (MFI) of tracer^+ parenchymal cells (for plasma, n=4; for hu-Tf, n=5-6; for TfR Ab, n=9, two-sided t-test; mean+/−s.e.m.). Tracer refers to plasma, hu-Tf, or TfR Ab FIG. 12M includes representative images of transferrin receptor antibody (TfR Ab) in the cortical vasculature (red) and parenchymal cells of ALPL inhibitor-treated aged (22 m.o.) mice. Arrowheads indicate TfR Ab^+ NeuN neurons. Scale bar=40 microns (left) and 10 microns (right). Data were replicated in at least 2 independent experiments.\nCNS cell isolation adopted previously described methods42,139,140. Briefly, cortices and hippocampi were microdissected, minced, and digested using the Neural Dissociation Kit (Miltenyi). Suspensions were filtered through a 100 μm strainer and myelin removed by centrifugation in 0.9 M sucrose. The remaining myelin-depleted cell suspension was blocked for ten minutes with Fc preblock (CD16/CD32, BD 553141) on ice and stained for 30 minutes with antibodies to distinguish brain endothelial cells (CD31+/CD45−), astrocytes (ACSA-2+), and neurons (NeuN+ or CD90.2/Thy1.2+). For analysis of plasma uptake, at least 1,000 cells of each population of interest were analyzed per sample. […]",
  "data": [
    {"smiles": "COc1ccc(OC)c(S(=O)(=O)Nc2cnc3ccccc3c2)c1", "note": "[ALPL inhibitor, 2,5-Dimethoxy-N-(quinolin-3-yl)benzenesulfonamide]", "values": [
      {"measurement": "parenchymal uptake of transferrin receptor antibody", "setting": "aged (22 m.o.) mice, TfR Ab 20 mg/kg i.v.", "result": "increased"},
      {"measurement": "parenchymal uptake of human holo-transferrin", "setting": "aged (22 m.o.) mice, hu-Tf 40 mg/kg i.v.", "result": "increased"},
      {"measurement": "amount of plasma taken up by participating cells", "setting": "aged mice, parenchymal cells (MFI)", "result": "increased"},
      {"measurement": "percentage of plasma+ cells", "setting": "aged mice, parenchymal cells", "result": "did not change"},
      {"measurement": "plasma transport across the endothelium to brain parenchymal cells", "setting": "aged mice", "result": "increased"},
      {"measurement": "plasma transcytosis across the young BBB to the parenchyma", "setting": "young (3 m.o.) mice", "result": "did not significantly enhance"}
    ]}
  ]
}
